From ChEMBL document CHEMBL1129703, “Lipophilic bioisosteres of nucleoside triphosphates” (Bioorg Med Chem Lett, 1996)

Key:
[1] = test system: CEM-TK(-); assay: Anti-HIV activity against HIV-2 infected CEM/TK- cell lines.; conditions: Homo sapiens
[2] = test system: CCRF-CEM; assay: Concentration required to reduce cell viability of CEM/0 cells by 50%; format: functional; conditions: Homo sapiens
[3] = test system: JM1; assay: Concentration required to reduce cell viability of JM cells by 50%; format: functional, Homo sapiens
[4] = test system: JM1; assay: Anti-HIV activity against HIV-1 infected JM cell lines; format: functional, cell-based
[5] = molecular target: Human immunodeficiency virus type 1 reverse transcriptase (Human immunodeficiency virus 1, UniProt Q72547); assay: Inhibition of HIV-1 reverse transcriptase
[6] = test system: C8166; assay: Cytotoxicity in C8166 cell lines; format: functional, Homo sapiens
[7] = test system: MT2; assay: Anti-HIV activity against HIV-2 infected MT2 cell lines; format: functional, cell-based, Homo sapiens
[8] = test system: C8166; assay: Anti-HIV activity against HIV-1 infected C8166 cell lines; format: functional, cell-based, Human immunodeficiency virus 1
[9] = test system: MT2; assay: Concentration required to reduce cell viability of MT2 cells by 50%; format: functional; conditions: Homo sapiens
[10] = test system: C8166; assay: Concentration of compound required to reduce cell viability of C8166 cells by 50%; format: functional; conditions: Homo sapiens
[11] = test system: CCRF-CEM; assay: Anti-HIV activity against HIV-2 infected CEM/0 cell lines.; format: functional, cell-based; conditions: Homo sapiens
[12] = test system: CCRF-CEM; assay: Anti-HIV activity against HIV-1 infected CEM/0 cell lines.; format: functional, cell-based; conditions: Homo sapiens

Row | Compound | EC50 [1] [µM] | CC50 [2] [µM] | CC50 ([3]; Homo sapiens, JM1) [µM] | EC50 ([4]; Homo sapiens, JM1) [µM] | IC50 [5] [µM] | CC50 ([6]; Homo sapiens, C8166) [µM] | EC50 ([7]; mt2) [µM] | EC50 ([8]; c8166) [µM] | EC50 ([4]; jm1) [µM] | EC50 ([7]; Homo sapiens, MT2) [µM] | EC50 ([8]; Homo sapiens, C8166) [µM] | CC50 [9] [µM] | CC50 [10] [µM] | EC50 [11] [µM] | EC50 [12] [µM] | CC50 [3] [µM] | CC50 [6] [µM]
1 | Cc1cn([C@H]2C[C@H](N=[N+]=[N-])[C@@H](CO)O2)c(=O)[nH]c1=O [ZIDOVUDINE] | > 250 | > 250 | > 1000 | 200 | > 100 | > 1000 | – | – | – | – | – | – | – | – | – | – | –
2 | Cc1cn([C@H]2C[C@H](O[Si](C)(C)C(C)(C)C)[C@@H](COC(=O)CC3(C)CC(C)(O)CO3)O2)c(=O)[nH]c1=O (stereo in doubt; form 2) | – | – | – | – | – | – | 10 | 10 | 10 | – | – | – | – | – | – | – | –
3 | Cc1cn([C@H]2C=C[C@@H](CNC(=O)CC3(C)CC(C)(O)CO3)O2)c(=O)[nH]c1=O (stereo in doubt; form 1) | – | – | > 500 | – | – | > 500 | – | – | 200 | 500 | 500 | > 500 | – | – | – | – | –
4 | CSCO[C@@]1(C)CO[C@](C)(CC(=O)OC[C@H]2O[C@@H](N3C=C(C)CNC3=O)C[C@@H]2O)C1 | > 250 | > 250 | 400 | 200 | > 100 | – | – | – | – | – | 16 | – | 400 | 3.1 | 6 | – | –
5 | CSCO[C@@]1(C)CO[C@@](C)(CC(=O)OC[C@H]2O[C@@H](n3cc(C)c(=O)[nH]c3=O)C[C@@H]2O[Si](C)(C)C(C)(C)C)C1 | – | 36 | 80 | 16 | > 100 | 80 | – | – | – | – | 16 | – | – | > 10 | > 10 | – | –
6 | CC1=CN([C@H]2C[C@H](O)[C@@H](COC(=O)C[C@@]3(C)C[C@@](C)(O)CO3)O2)C(=O)NC1 | – | – | > 500 | 40 | – | > 500 | – | – | – | 4 | 8 | > 1000 | – | – | – | – | –
7 | Cc1cn([C@H]2C[C@H](N=[N+]=[N-])[C@@H](COC(=O)CC3(C)CC(C)(O)CO3)O2)c(=O)[nH]c1=O (stereo in doubt; form 2) | – | – | – | – | – | > 1000 | 4 | 8 | 400 | – | – | > 1000 | – | – | – | 400 | –
8 | CSCOC1(C)COC(C)(CC(=O)O)C1 (centres undefined) | > 250 | > 250 | > 1000 | > 1000 | > 100 | > 1000 | – | – | – | – | > 1000 | – | – | > 250 | > 250 | – | –
9 | Cc1cn([C@H]2C[C@H](O[Si](C)(C)C(C)(C)C)[C@@H](CO)O2)c(=O)[nH]c1=O | – | – | 400 | 20 | – | 400 | – | – | – | – | 16 | – | – | – | – | – | –
10 | Cc1cn([C@H]2C[C@H](N=[N+]=[N-])[C@@H](COC(=O)CC3(C)CC(C)(O)CO3)O2)c(=O)[nH]c1=O (stereo in doubt; 13) | – | – | – | – | – | – | – | 0.04 | 200 | – | – | – | – | – | – | 1000 | 500
11 | Cc1cn([C@H]2C[C@H](O[Si](C)(C)C(C)(C)C)[C@@H](COC(=O)CC3(C)CC(C)(O)CO3)O2)c(=O)[nH]c1=O (stereo in doubt; form 1) | – | – | 200 | 20 | – | 200 | – | – | – | 20 | 20 | 200 | – | – | – | – | –
12 | Cc1cn([C@H]2C[C@H](O)[C@@H](COC(=O)C[C@@]3(C)C[C@@](C)(O)CO3)O2)c(=O)[nH]c1=O | – | – | > 1000 | 500 | – | > 1000 | – | – | – | 1000 | > 1000 | > 1000 | – | – | – | – | –
13 | CSCOC1(C)COC(C)(CC(=O)OC[C@H]2O[C@@H](n3cc(C)c(=O)[nH]c3=O)C[C@@H]2N=[N+]=[N-])C1 (some centres undefined) | > 250 | 233 | 500 | 100 | > 100 | – | – | – | – | – | 0.32 | – | 500 | 0.14 | 0.2 | – | –
14 | Cc1cn([C@H]2C=C[C@@H](CNC(=O)CC3(C)CC(C)(O)CO3)O2)c(=O)[nH]c1=O (stereo in doubt; form 2) | – | – | – | – | – | – | > 500 | > 500 | 500 | – | – | – | – | – | – | – | –
15 | CSCOC1(C)COC(C)(CC(=O)NC[C@@H]2C=C[C@H](n3cc(C)c(=O)[nH]c3=O)O2)C1 (some centres undefined) | – | – | > 1000 | 500 | – | > 1000 | – | – | – | 200 | 400 | > 1000 | – | – | – | – | –
16 | CSCO[C@@]1(C)CO[C@@](C)(CC(=O)OC[C@H]2O[C@@H](n3cc(C)c(=O)[nH]c3=O)C[C@@H]2O)C1 | > 250 | > 250 | 400 | 200 | > 100 | 1000 | – | – | – | – | 200 | – | – | 88 | 200 | – | –
17 | Cc1cn([C@H]2C[C@H](N=[N+]=[N-])[C@@H](COC(=O)CC3(C)CC(C)(O)CO3)O2)c(=O)[nH]c1=O (stereo in doubt; form 1) | – | – | – | – | – | – | 0.064 | 0.064 | 100 | – | – | – | – | – | – | > 1000 | –
